Drawing on patent US9242987B2, “Heterocyclyl pyrazolopyrimidine analogues as JAK inhibitors” (Cellzome Limited, priority 2009, dated 2016), this text covers IC50 for 19 compounds.

The target in one test is T1, JAK2 (Homo sapiens, UniProt O60674).
T1 construct: endogenous in cells; host or cells: Mixed Molt4/Ramos lysate (1:2)
The test can be described thus: Kinobeads assay, JAK2. Conditions: mixed Molt4/Ramos cell lysate, dot blot detection. It counts as binding. How it is done:
(§1) The compounds of the present invention as described in the previous examples were tested in a Kinobeads™ assay as described for ZAP-70 (WO-A 2007/137867). Briefly, test compounds (at various concentrations) and the affinity matrix with the immobilized aminopyrido-pyrimidine ligand 24 were added to cell lysate aliquots and allowed to bind to the proteins in the lysate sample. After the incubation time the beads with captured proteins were separated from the lysate. Bound proteins were then eluted and the presence of JAK2 and JAK3 was detected and quantified using specific antibodies in a dot blot procedure and the Odyssey infrared detection system. Dose response curves for individual kinases were generated and IC50 values calculated. Kinobeads™ assays for ZAP-70 (WO-A 2007/137867) and for kinase selectivity profiling (WO-A 2006/134056) have been previously described.
(§2) The affinity matrix was washed two times with 15 mL of 1×DP buffer containing 0.2% NP40 (IGEPAL® CA-630, Sigma, #13021) and then resuspended in 1×DP buffer containing 0.2% NP40 (3% beads slurry).
(§3) 5×DP buffer: 250 mM Tris-HCl pH 7.4, 25% Glycerol, 7.5 mM MgCl2, 750 mM NaCl, 5 mM Na3VO4; filter the 5×DP buffer through a 0.22 μm filter and store in aliquots at −80° C. The 5×DP buffer is diluted with H2O to 1×DP buffer containing 1 mM DTT and 25 mM NaF.
(§4) Stock solutions of test compounds were prepared in DMSO. In a 96 well plate 30 μL solution of diluted test compounds at 5 mM in DMSO were prepared. Starting with this solution a 1:3 dilution series (9 steps) was prepared. For control experiments (no test compound) a buffer containing 2% DMSO was used.
(§5) Molt4 cells (ATCC catalogue number CRL-1582) and Ramos cells (ATCC catalogue number CRL-1596) were grown in 1 L Spinner flasks (Integra Biosciences, #182101) in suspension in RPMI 1640 medium (Invitrogen, #21875-034) supplemented with 10% Fetal Bovine Serum (Invitrogen) at a density between 0.15×10^6 and 1.2×10^6 cells/mL. Cells were harvested by centrifugation, washed once with 1×PBS buffer (Invitrogen, #14190-094) and cell pellets were frozen in liquid nitrogen and subsequently stored at −80° C. Cells were homogenized in a Potter S homogenizer in lysis buffer: 50 mM Tris-HCl, 0.8% NP40, 5% glycerol, 150 mM NaCl, 1.5 mM MgCl2, 25 mM NaF, 1 mM sodium vanadate, 1 mM DTT, pH 7.5. One complete EDTA-free tablet (protease inhibitor cocktail, Roche Diagnostics, 1873580) per 25 mL buffer was added. The material was dounced 10 times using a mechanized POTTER S, transferred to 50 mL falcon tubes, incubated for 30 minutes on ice and spun down for 10 minutes at 20,000 g at 4° C. (10,000 rpm in Sorvall SLA600, precooled). The supernatant was transferred to an ultracentrifuge (UZ)-polycarbonate tube (Beckmann, 355654) and spun for 1 hour at 100.000 g at 4° C. (33.500 rpm in Ti50.2, precooled). The supernatant was transferred again to a fresh 50 mL falcon tube, the protein concentration was determined by a Bradford assay (BioRad) and samples containing 50 mg of protein per aliquot were prepared. The samples were immediately used for experiments or frozen in liquid nitrogen and stored frozen at −80° C.
(§6) Cell lysate (approximately 50 mg protein per plate) was thawed in a water bath at room temperature and then stored on ice. To the thawed cell lysate 1×DP 0.8% NP40 buffer containing protease inhibitors (1 tablet for 25 mL buffer; EDTA-free protease inhibitor cocktail; Roche Diagnostics 1873580) was added in order to reach a final protein concentration of 10 mg/mL total protein. The diluted cell lysate was stored on ice. Mixed Molt4/Ramos lysate was prepared by combining one volume of Molt4 lysate and two volumes of Ramos lysate (ratio 1:2).
(§7) To a 96 well filter plate (Multiscreen HTS, BV Filter Plates, Millipore #MSBVN1250) were added per well: 100 μL affinity matrix (3% beads slurry), […], of compound solution, and 50 μL of diluted lysate. […]

The target of another test is T2, JAK3 (Homo sapiens, UniProt P52333).
T2 construct: endogenous in cells; host or cells: Mixed Molt4/Ramos lysate (1:2)
T2 sequence (P52333 1-1124): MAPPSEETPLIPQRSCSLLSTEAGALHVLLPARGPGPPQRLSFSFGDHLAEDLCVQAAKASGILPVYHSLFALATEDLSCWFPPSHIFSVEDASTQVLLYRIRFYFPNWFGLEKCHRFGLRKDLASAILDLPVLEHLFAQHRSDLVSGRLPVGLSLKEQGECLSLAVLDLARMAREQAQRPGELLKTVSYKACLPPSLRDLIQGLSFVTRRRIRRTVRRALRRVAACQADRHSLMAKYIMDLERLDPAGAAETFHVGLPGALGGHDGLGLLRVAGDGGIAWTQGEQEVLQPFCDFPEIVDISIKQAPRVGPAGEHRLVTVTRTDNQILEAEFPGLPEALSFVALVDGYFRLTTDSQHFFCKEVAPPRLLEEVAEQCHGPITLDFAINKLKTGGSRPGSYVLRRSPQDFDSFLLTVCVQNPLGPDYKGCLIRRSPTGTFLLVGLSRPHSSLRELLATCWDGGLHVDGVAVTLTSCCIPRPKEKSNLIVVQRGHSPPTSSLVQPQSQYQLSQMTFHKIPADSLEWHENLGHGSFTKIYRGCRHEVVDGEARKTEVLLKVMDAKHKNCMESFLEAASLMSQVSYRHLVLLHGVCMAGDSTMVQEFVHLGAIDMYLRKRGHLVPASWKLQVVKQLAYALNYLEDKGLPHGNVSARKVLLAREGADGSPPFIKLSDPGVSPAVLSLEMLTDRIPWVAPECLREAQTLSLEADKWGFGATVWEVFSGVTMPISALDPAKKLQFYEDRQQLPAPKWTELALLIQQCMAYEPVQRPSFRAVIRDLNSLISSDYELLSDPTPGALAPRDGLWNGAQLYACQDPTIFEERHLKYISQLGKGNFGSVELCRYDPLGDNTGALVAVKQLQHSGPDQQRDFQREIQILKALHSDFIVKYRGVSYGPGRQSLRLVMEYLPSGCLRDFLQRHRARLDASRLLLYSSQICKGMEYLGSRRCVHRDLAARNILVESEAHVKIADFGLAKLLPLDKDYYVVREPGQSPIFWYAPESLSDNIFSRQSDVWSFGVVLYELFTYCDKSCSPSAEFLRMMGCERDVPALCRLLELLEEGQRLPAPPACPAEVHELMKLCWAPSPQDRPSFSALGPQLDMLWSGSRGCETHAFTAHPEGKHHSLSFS
The test can be described thus: Kinobeads assay, JAK3. It counts as binding. The note with it: mixed Molt4/Ramos cell lysate, dot blot detection. As for the experimental part: as §1, §2, §3, §4, §5, §6, §7

T1 sequence (O60674 whole entry): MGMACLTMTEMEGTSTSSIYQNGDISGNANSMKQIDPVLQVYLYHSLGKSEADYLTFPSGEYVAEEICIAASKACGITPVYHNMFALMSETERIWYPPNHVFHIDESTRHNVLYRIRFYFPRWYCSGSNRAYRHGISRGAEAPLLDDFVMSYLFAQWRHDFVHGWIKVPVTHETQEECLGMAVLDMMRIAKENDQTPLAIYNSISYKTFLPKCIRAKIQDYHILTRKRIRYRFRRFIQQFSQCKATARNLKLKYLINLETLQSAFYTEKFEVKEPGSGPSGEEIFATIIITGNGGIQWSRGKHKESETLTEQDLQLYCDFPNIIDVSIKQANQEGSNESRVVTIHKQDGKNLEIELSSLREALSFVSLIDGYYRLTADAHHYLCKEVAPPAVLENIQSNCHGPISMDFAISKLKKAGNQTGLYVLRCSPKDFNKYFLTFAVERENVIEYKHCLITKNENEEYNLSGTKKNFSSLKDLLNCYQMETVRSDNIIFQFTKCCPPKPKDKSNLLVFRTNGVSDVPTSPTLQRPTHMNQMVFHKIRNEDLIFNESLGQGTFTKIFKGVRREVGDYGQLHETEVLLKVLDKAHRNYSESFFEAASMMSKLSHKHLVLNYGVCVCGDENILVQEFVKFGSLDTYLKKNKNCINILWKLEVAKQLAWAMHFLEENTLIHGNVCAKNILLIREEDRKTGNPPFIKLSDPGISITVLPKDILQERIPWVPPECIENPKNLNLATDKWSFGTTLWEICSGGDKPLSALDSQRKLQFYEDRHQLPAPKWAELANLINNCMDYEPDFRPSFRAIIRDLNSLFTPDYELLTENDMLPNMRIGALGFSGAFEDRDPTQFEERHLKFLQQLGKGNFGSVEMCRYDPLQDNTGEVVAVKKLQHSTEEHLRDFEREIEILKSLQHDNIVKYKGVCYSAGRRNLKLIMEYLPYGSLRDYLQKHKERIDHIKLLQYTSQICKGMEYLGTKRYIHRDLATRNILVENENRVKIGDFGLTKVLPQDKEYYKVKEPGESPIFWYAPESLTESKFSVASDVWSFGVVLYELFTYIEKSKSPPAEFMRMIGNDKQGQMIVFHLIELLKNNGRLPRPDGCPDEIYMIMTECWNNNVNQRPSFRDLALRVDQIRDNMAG

The IC50 is the concentration needed to halve the response being measured. Lower therefore signals inhibition by little substance. For `Cn1cc(Nc2ncc3cnn(Cc4ccccc4C#N)c3n2)cn1` [Example 1, 2-((6-(1-Methyl-1H-pyrazol-4-ylamino)-1H-pyrazolo[3,4-d]pyrimidin-1-yl)methyl)benzonitrile], the half-inhibitory concentration (IC50) against JAK2 was 1 to 10 µM; against JAK3 it was less than 0.1 µM.

With `Cn1cc(Nc2ncc3cnn(Cc4ccccc4F)c3n2)cn1` [Example 2, 1-(2-Fluorobenzyl)-N-(1-methyl-1H-pyrazol-4-yl)-1H-pyrazolo[3,4-d]pyrimidin-6-amine], the results for the IC50 against JAK2 and at JAK3 were 1 to 10 µM and less than 0.1 µM, respectively.

For `Cn1ccc(Nc2ncc3cnn(Cc4ccccc4C#N)c3n2)n1` [Example 3, 2-((6-(1-Methyl-1H-pyrazol-3-ylamino)-1H-pyrazolo[3,4-d]pyrimidin-1-yl)methyl)benzonitrile], the IC50 was no less than 10 µM against JAK2 and 0.1 to 1 µM on JAK3.

Turning to `N#Cc1ccccc1Cn1ncc2cnc(Nc3cn[nH]c3)nc21` [Example 4, 2-((6-(1H-Pyrazol-4-ylamino)-1H-pyrazolo[3,4-d]pyrimidin-1-yl)methyl)benzonitrile], the results for the IC50 at JAK2 and on JAK3 were 0.1 to 1 µM and less than 0.1 µM, respectively.

Take `N#Cc1ccccc1Cn1ncc2cnc(Nc3ccon3)nc21` [Example 8]: the IC50 on JAK2 was no less than 10 µM; on JAK3, 1 to 10 µM.

Consider `Cc1cc(Nc2ncc3cnn(Cc4ccccc4C#N)c3n2)nn1C` [Example 9, 2-((6-(1,5-Dimethyl-1H-pyrazol-3-ylamino)-1H-pyrazolo[3,4-d]pyrimidin-1-yl)methyl)benzonitrile], for which the IC50 on JAK2 is no less than 10 µM; at JAK3 it was 0.1 to 1 µM.

On to `COCCn1cc(Nc2ncc3cnn(Cc4ccccc4C#N)c3n2)cn1` [Example 10, 2-((6-(1-(2-Methoxyethyl)-1H-pyrazol-4-ylamino)-1H-pyrazolo[3,4-d]pyrimidi-1-yl)methyl)benzonitrile], for which the 50% inhibitory concentration (IC50) was 0.1 to 1 µM against JAK2 and less than 0.1 µM against JAK3.

As to `CCn1cc(Nc2ncc3cnn(Cc4ccccc4C#N)c3n2)cn1` [Example 11, 2-((6-(1-Ethyl-1H-pyrazol-4-ylamino)-1H-pyrazolo[3,4-d]pyrimidin-1-yl)methyl)benzonitrile], the IC50 on JAK2 is 1 to 10 µM; at JAK3, less than 0.1 µM.

As to `CC(C)n1cc(Nc2ncc3cnn(Cc4ccccc4C#N)c3n2)cn1` [Example 12, 2-((6-(1-Isopropyl-1H-pyrazol-4-ylamino)-1H-pyrazolo[3,4-d]pyrimidin-1-yl)methyl)benzonitrile], the IC50 was 1 to 10 µM against JAK2 and less than 0.1 µM against JAK3.

`CNC(=O)Cn1cc(Nc2ncc3cnn(Cc4ccccc4C#N)c3n2)cn1` [Example 13, 2-(4-(1-(2-Cyanobenzyl)-1H-pyrazolo[3,4-d]pyrimidin-6-ylamino)-1H-pyrazol-1-yl)-N-methylacetamide]: the concentration for half-maximal inhibition (IC50) at JAK2 is 0.1 to 1 µM; against JAK3 it was less than 0.1 µM.

For `N#Cc1ccccc1Cn1ncc2cnc(Nc3cnn(CC(=O)N4CCOCC4)c3)nc21` [Example 14, 2-((6-(1-(2-Morpholino-2-oxoethyl)-1H-pyrazol-4-ylamino)-1H-pyrazolo[3,4-d]pyrimidin-1-yl)methyl)benzonitrile], the IC50 is 0.1 to 1 µM against JAK2 and less than 0.1 µM at JAK3.

Turning to `N#CCCn1cc(Nc2ncc3cnn(Cc4ccccc4C#N)c3n2)cn1` [Example 15, 2-((6-(1-(2-Cyanoethyl)-1H-pyrazol-4-ylamino)-1H-pyrazolo[3,4-d]pyrimidin-1-yl)methyl)benzonitrile], the figures for the half-maximal inhibitory concentration (IC50) at JAK2 and at JAK3 were 1 to 10 µM and less than 0.1 µM, respectively.

With `Cn1cc(Nc2ncc3cnn(Cc4ccccc4C(N)=O)c3n2)cn1` [Example 16, 2-((6-(1-Methyl-1H-pyrazol-4-ylamino)-1H-pyrazolo[3,4-d]pyrimidin-1-yl)methyl)benzamide], the IC50 against JAK2 is 1 to 10 µM; on JAK3, less than 0.1 µM.

As to `CN(c1ccc(-n2ncc3cnc(Nc4cnn(C)c4)nc32)cc1)S(C)(=O)=O` [Example 17, N-Methyl-N-(4-(6-(1-methyl-1H-pyrazol-4-ylamino)-1H-pyrazolo[3,4-d]pyrimidin-1-yl)phenyl)methanesulfonamide], the IC50 against JAK2 and against JAK3 was 0.1 to 1 µM throughout.

Take `Cn1cc(Nc2ncc3cnn(-c4ccc(NS(C)(=O)=O)cc4)c3n2)cn1` [Example 18, N-(4-(6-(1-Methyl-1H-pyrazol-4-ylamino)-1H-pyrazolo[3,4-d]pyrimidin-1-yl)phenyl)methanesulfonamide]: the 50% inhibitory concentration (IC50) is 0.1 to 1 µM against JAK2 and less than 0.1 µM against JAK3.

Take `CC(C)n1ccc(Nc2ncc3cnn(Cc4ccccc4C#N)c3n2)n1` [Example 19, 2-((6-(1-Isopropyl-1H-pyrazol-3-ylamino)-1H-pyrazolo[3,4-d]pyrimidin-1-yl)methyl)benzonitrile]: the IC50 was no less than 10 µM against JAK2 and 1 to 10 µM on JAK3.

`N#CCCCn1cc(Nc2ncc3cnn(Cc4ccccc4C#N)c3n2)cn1` [Example 20, 2-((6-(1-(3-Cyanopropyl)-1H-pyrazol-4-ylamino)-1H-pyrazolo[3,4-d]pyrimidin-1-yl)methyl)benzonitrile]: the IC50 against JAK2 was 1 to 10 µM; against JAK3, less than 0.1 µM.

At JAK2, `Cn1cc(Nc2ncc3cnn(Cc4cccc(N5CCOCC5)c4)c3n2)cn1` [Example 162, N-(1-Methyl-1H-pyrazol-4-yl)-1-(3-morpholinobenzyl)-1H-pyrazolo[3,4-d]pyrimidin-6-amine] gave an IC50 of no less than 10 µM.

Consider `O=C(c1cccc(Cn2ncc3cnc(Nc4cnn(CCO)c4)nc32)c1F)N1CCOCC1` [Example 313, (2-Fluoro-3-((6-((1-(2-hydroxyethyl)-1H-pyrazol-4-yl)amino)-1H-pyrazolo[3,4-d]pyrimidin-1-yl)methyl)phenyl)(morpholino)methanone], for which, at JAK2, the IC50 is no less than 10 µM.
